Molecules are shown by their SMILES.

ADAMTS4, sequence (O75173 213-685): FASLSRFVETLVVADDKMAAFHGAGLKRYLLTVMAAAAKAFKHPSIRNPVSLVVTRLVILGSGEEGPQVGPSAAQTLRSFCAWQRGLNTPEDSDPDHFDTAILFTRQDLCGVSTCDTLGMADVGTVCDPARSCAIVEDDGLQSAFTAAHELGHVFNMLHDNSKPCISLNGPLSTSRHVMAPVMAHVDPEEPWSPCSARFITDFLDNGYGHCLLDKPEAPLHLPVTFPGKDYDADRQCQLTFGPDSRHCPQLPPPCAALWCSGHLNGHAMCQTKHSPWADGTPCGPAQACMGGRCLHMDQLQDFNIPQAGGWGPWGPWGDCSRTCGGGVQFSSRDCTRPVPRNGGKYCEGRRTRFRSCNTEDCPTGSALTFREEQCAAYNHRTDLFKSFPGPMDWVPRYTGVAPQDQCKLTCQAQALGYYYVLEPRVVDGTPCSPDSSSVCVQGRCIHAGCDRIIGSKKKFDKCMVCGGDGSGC

For this test, the target named is ADAMTS4 (Homo sapiens (Human), UniProt O75173). In words: Selectivity assay for ADAMTS-7 modulators: ADAMTS4 (FRET substrate). It is filed as biochemical. As to conditions: ADAMTS4 (R&D 4307-AD) 50 nM, substrate Dabcyl-EEVKAKVQPY-Glu(Edans)-NH2 1 μM, 120 min, 32° C. The method, boiled down:
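Activity read as rising fluorescence after a FRET substrate is cleaved by human ADAMTS4, with reactions started by substrate addition to wells holding compound or DMSO. Percent inhibition plotted against concentration gave IC50.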
Consider `CCCC1(CNC(=O)c2ccccc2-c2ccc(C(F)(F)F)nc2)NC(=O)NC1=O` (racemic) [Example 57, Rac-N-[(2,5-Dioxo-4-Propylimidazolidin-4-Yl)Methyl]-2-[6-(Trifluoromethyl)Pyridin-3-Yl]Benzamide], for which the IC50 is greater than 50 µM.

`O=C1NC(=O)[C@](CNC(=O)c2ccncc2-c2ccc(Cl)cc2)(C2CC2)N1` [Example 56, 3-(4-Chlorophenyl)-N-{[(4R)-4-Cyclopropyl-2,5-Dioxoimidazolidin-4-Yl]Methyl}Isonicotinamide] came in with an IC50 of 31 µM.

On to `O=C1NC(=O)[C@](CNC(=O)c2c(Cl)cccc2-c2ccc(Cl)cc2)(C2CC2)N1` [Example 231, 3,4′-Dichloro-N-{[(4R)-4-Cyclopropyl-2,5-Dioxoimidazoidin-4-Yl]Methyl}[1,1′-Biphenyl]-2-Carboxamide], for which half-maximal inhibition (IC50) required 5.2 µM.

The molecule `O=C1NC(=O)[C@](CNC(=O)c2ccccc2-c2ccc(Cl)cc2F)(C2CC2)N1` [Example 54, 4′-Chloro-N-{[(4R)-4-Cyclopropyl-2,5-Dioxoimidazolidin-4-Yl]Methyl}-2′-Fluoro[Biphenyl]-2-Carboxamide] registered an IC50 of 32 µM.

Turning to `Cc1ncsc1C1(CNC(=O)c2ccc(Cl)cc2-c2ccc(C(F)(F)F)cc2)NC(=O)NC1=O` (single isomer, unassigned; ent-5) [Example 7, Ent-5-Chloro-N-{[4-(4-Methyl-1,3-Thiazol-5-Yl)-2,5-Dioxoimidazolidin-4-Yl]Methyl}-4′-(Trifluoromethyl)[Biphenyl]-2-Carboxamide], half-maximal inhibition (IC50) required 3.7 µM.

Molecule `Cc1ccc(C(=O)NCC2(c3nccn3C)NC(=O)NC2=O)c(-c2ccc(C3CC3(F)F)cc2)c1` (stereo not drawn) [Example 135, 4′-(2,2-Difluorocyclopropyl)-5-Methyl-N-{[4-(1-Methyl-1H-Imidazol-2-Yl)-2,5-Dioxoimidazolidin-4-Yl]Methyl}[1,1′-Biphenyl]-2-Carboxamide] registered an IC50 of 1.3 µM.

With `CC(C)(C)C1(CNC(=O)c2ccccc2-c2ccc(C(F)(F)F)cc2)NC(=O)NC1=O` (stereo not drawn) [Example 71, Ent-N-[(4-Tert-Butyl-2,5-Dioxoimidazolidin-4-Yl)Methyl]-4′-(Trifluoromethyl)[Biphenyl]-2-Carboxamide], half-maximal inhibition (IC50) required 16.3 µM.

In turn, `O=C1NC(=O)[C@](CNC(=O)c2ccc(F)cc2-c2ccc(C(F)(F)F)nc2)(C2CC2)N1` [Example 290, N-{[(4R)-4-Cyclopropyl-2,5-Dioxoimidazolidin-4-Yl]Methyl}-4-Fluoro-2-[6-(Trifluoromethyl)Pyridin-3-Yl]Benzamide] had an IC50 of 21 µM.

`O=C1NC(=O)C(CNC(=O)c2ccccc2-c2ccc(C(F)(F)F)cc2)(C2(Cl)CC2)N1` (stereo not drawn) [Example 280, Ent-N-{[4-(1-Chlorocyclopropyl)-2,5-Dioxoimidazolidin-4-Yl]Methyl}-4′-(Trifluoromethyl)[Biphenyl]-2-Carboxamide] came in with a half-inhibitory concentration (IC50) of 7.1 µM.

Consider `Cc1conc1C1(CNC(=O)c2ccccc2-c2ccc(C(F)(F)F)cc2)NC(=O)NC1=O` (stereo not drawn) [Example 69, Ent-N-{[4-(4-Methyl-1,2-Oxazol-3-Yl)-2,5-Dioxoimidazolidin-4-Yl]Methyl}-4′-(Trifluoromethyl)[Biphenyl]-2-Carboxamide], for which the IC50 was 4.9 µM.

`Cc1c(C2(CNC(=O)c3ccc(F)c(F)c3-c3ccc(C(F)(F)F)cc3)NC(=O)NC2=O)cnn1C` (racemic) [Example 316, Rac-N-{[4-(1,5-Dimethyl-1H-Pyrazol-4-Yl)-2,5-Dioxoimidazolidin-4-Yl]Methyl}-5,6-Difluoro-4′-(Trifluoromethyl)[Biphenyl]-2-Carboxamide] had an IC50 of 12 µM.

For the molecule `CC(C)CCC1(CNC(=O)c2ccccc2-c2ccc(C(F)(F)F)cc2)NC(=O)NC1=O` (racemic) [Example 58, Rac-N-{[4-(3-Methylbutyl)-2,5-Dioxoimidazolidin-4-Yl]Methyl}-4′-(Trifluoromethyl)[Biphenyl]-2-Carboxamide], the IC50 was greater than 50 µM.

`O=C1NC(=O)C(CNC(=O)c2ccc(F)c(F)c2-c2ccc(C(F)(F)F)cc2)(C2(F)CC2)N1` (racemic) [Example 256, Rac-5,6-Difluoro-N-{[4-(1-Fluorocyclopropyl)-2,5-Dioxoimidazolidin-4-Yl]Methyl}-4′-(Trifluoromethyl)[Biphenyl]-2-Carboxamide] came in with a concentration for half-maximal inhibition (IC50) of 28 µM.

Molecule `Cn1ccnc1C1(CNC(=O)c2cc(F)ccc2-c2ccc(C(F)(F)F)cc2)NC(=O)NC1=O` (single isomer, unassigned; ent-4) [Example 149, Ent-4-Fluoro-N-{[4-(1-Methyl-1H-Imidazol-2-Yl)-2,5-Dioxoimidazolidin-4-Yl]Methyl}-4′-(Trifluoromethyl)[Biphenyl]-2-Carboxamide] displayed a half-inhibitory concentration (IC50) of 1.15 µM.

In turn, `O=C1NC(=O)[C@](CNC(=O)c2ccccc2-c2ccc(C(F)F)cc2)(C2CC2)N1` [Example 122, N-{[(4R)-4-Cyclopropyl-2,5-Dioxoimidazolidin-4-Yl]Methyl}-4′-(Difluoromethyl)[Biphenyl]-2-Carboxamide] came in with a half-inhibitory concentration (IC50) of 7.9 µM.

`O=C1NC(=O)[C@](CNC(=O)c2c(F)cccc2-c2ccc(C(F)(F)F)cc2)(C2CC2)N1` [Example 230, N-{[(4R)-4-Cyclopropyl-2,5-Dioxoimidazolidin-4-Yl]Methyl}-3-Fluoro-4′-(Trifluoromethyl)[1,1′-Biphenyl]-2-Carboxamide] came in with an IC50 of 33 µM.

The molecule `Cc1scnc1C1(CNC(=O)c2ccccc2-c2ccc(C(F)(F)F)cc2)NC(=O)NC1=O` (single isomer, unassigned) [Example 2, Ent-N-{[4-(5-Methyl-1,3-Thiazol-4-Yl)-2,5-Dioxoimidazolidin-4-Yl]Methyl}-4′-(Trifluoromethyl)[Biphenyl]-2-Carboxamide] returned an IC50 greater than 50 µM.

Take `O=C1NC(=O)C(CNC(=O)c2ccccc2-c2ccc(Cl)cc2)(C2CC(F)(F)C2)N1` (racemic) [Example 246, Rac-4′-Chloro-N-{[4-(3,3-Difluorocyclobutyl)-2,5-Dioxoimidazolidin-4-Yl]Methyl}[Biphenyl]-2-Carboxamide]: the IC50 was greater than 50 µM.

As for `O=C1NC(=O)C(CNC(=O)c2ccccc2-c2ccc(C(F)(F)F)cc2)(c2ccnn2CC(F)(F)F)N1` (stereo not drawn) [Example 28, Ent-N-({2,5-Dioxo-4-[1-(2,2,2-Trifluoroethyl)-1H-Pyrazol-5-Yl]Imidazolidin-4-Yl}Methyl)-4′-(Trifluoromethyl)[Biphenyl]-2-Carboxamide], the half-maximal inhibitory concentration (IC50) stood at 11 µM.

Molecule `CS(=O)(=O)c1ccc(-c2ccccc2C(=O)NC[C@@]2(C3CC3)NC(=O)NC2=O)cc1` [Example 217, N-{[(4R)-4-Cyclopropyl-2,5-Dioxoimidazolidin-4-Yl]Methyl}-4′-(Methanesulfonyl)[1,1′-Biphenyl]-2-Carboxamide] showed an IC50 of 16 µM.

Turning to `O=C1NC(=O)[C@](CNC(=O)c2ccc(Cl)cc2-c2ccc(Cl)cc2)(C2CC2)N1` [Example 232, 4′,5-Dichloro-N-{[(4R)-4-Cyclopropyl-2,5-Dioxoimidazolidin-4-Yl]Methyl}[1,1′-Biphenyl]-2-Carboxamide], half-maximal inhibition (IC50) was put at 3.7 µM.

`O=C1NC(=O)C(CNC(=O)c2ccccc2-c2ccc(C(F)(F)F)cc2)(c2ccccc2)N1` (racemic) [Example 12, Rac-N-[(2,5-Dioxo-4-Phenylimidazolidin-4-Yl)Methyl]-4′-(Trifluoromethyl)[Biphenyl]-2-Carboxamide] had an IC50 greater than 50 µM.

Molecule `Cc1ccc(C(=O)NCC2(C(C)C)NC(=O)NC2=O)c(-c2ccc(C(F)(F)F)cc2)c1` (racemic) [Example 202, Rac-N-[(4-Isopropyl-2,5-Dioxoimidazolidin-4-Yl)Methyl]-5-Methyl-4′-(Trifluoromethyl)[Biphenyl]-2-Carboxamide] registered a half-inhibitory concentration (IC50) of 38 µM.

Turning to `Cn1ccnc1C1(CNC(=O)c2ccccc2-c2ccc(Cl)cc2)NC(=O)NC1=O` (single isomer, unassigned; ent-4) [Example 155, Ent-4′-Chloro-N-{[4-(1-Methyl-1H-Imidazol-2-Yl)-2,5-Dioxoimidazolidin-4-Yl]Methyl}[Biphenyl]-2-Carboxamide], the concentration for half-maximal inhibition (IC50) was 5.9 µM.

Consider `O=C1NC(=O)C(CNC(=O)c2ccc(F)cc2-c2ccc(C(F)(F)F)cc2)(C2(Cl)CC2)N1` (racemic) [Example 282, Rac-N-{[4-(1-Chlorocyclopropyl)-2,5-Dioxoimidazolidin-4-Yl]Methyl}-5-Fluoro-4′-(Trifluoromethyl)[Biphenyl]-2-Carboxamide], for which half-maximal inhibition (IC50) was put at 16 µM.

As for `O=C1NC(=O)[C@](CNC(=O)c2ccccc2-c2ccccc2)(C2CC2)N1` [Example 131, N-{[(4R)-4-Cyclopropyl-2,5-Dioxoimidazolidin-4-Yl]Methyl}[Biphenyl]-2-Carboxamide], the 50% inhibitory concentration (IC50) is 8.7 µM.

`Cc1ccc(-c2cccc(Cl)c2C(=O)NC[C@@]2(C3CC3)NC(=O)NC2=O)cc1` [Example 222, 3-Chloro-N-{[(4R)-4-Cyclopropyl-2,5-Dioxoimidazolidin-4-Yl]Methyl}-4′-Methyl[1,1′-Biphenyl]-2-Carboxamide] displayed a concentration for half-maximal inhibition (IC50) of 3 µM.

The molecule `O=C1NC(=O)C(CNC(=O)c2ccccc2-c2ccc(C(F)(F)F)cc2)(c2ccnn2C(F)F)N1` (stereo not drawn) [Example 261, Ent-N-({4-[1-(Difluoromethyl)-1H-Pyrazol-5-Yl]-2,5-Dioxoimidazolidin-4-Yl}Methyl)-4′-(Trifluoromethyl)[Biphenyl]-2-Carboxamide] gave an IC50 greater than 50 µM.

Turning to `O=C1NC(=O)C(CNC(=O)c2cccc(F)c2-c2ccc(C(F)(F)F)cc2)(C2(F)CC2)N1` (racemic) [Example 299, Rac-6-Fluoro-N-{[4-(1-Fluorocyclopropyl)-2,5-Dioxoimidazolidin-4-Yl]Methyl}-4′-(Trifluoromethyl)[Biphenyl]-2-Carboxamide], the 50% inhibitory concentration (IC50) turned out to be 19 µM.

The molecule `O=C1NC(=O)[C@](CNC(=O)c2ccccc2-c2ccc(C(F)(F)F)nc2)(C2CC2)N1` [Example 224, N-{[(4R)-4-Cyclopropyl-2,5-Dioxoimidazolidin-4-Yl]Methyl}-2-[6-(Trifluoromethyl)Pyridin-3-Yl]Benzamide] showed an IC50 of 19 µM.

The values are drawn from US12398120B2, “Substituted hydantoinamides as ADAMTS7 antagonists” (BAYER AKTIENGESELLSCHAFT, priority 2019, dated 2025).
